Results on 23 molecules are retold here after PubChem BioAssay (NCI).

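Dose response: 5 concentrations. Exposure: 48 h. Format: 96-well plates. Endpoint: linear interpolation; highest concentration if not reached. TGI denotes the concentration required for complete inhibition of growth.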

What all share (test): NCI tumour cell line growth inhibition, 48 h
Assay [1] has as its system HOP-18 NSCLC.
The subject of assay [2] is RXF-631 renal.
The subject of assay [3] is DMS 114 small cell lung.
The test system of assay [4] is P388 leukemia.
Assay [5] concerns P388/ADR leukemia.
Assay [6] concerns SN12K1 renal.

Turning to `Cc1ccc(Sc2ccccc2[N+](=O)[O-])cc1`, the TGI in assay [1] was > 100 µM.

With `CNc1ccc2ncccc2c1[N+](=O)[O-]`, the TGI in assay [1], in assay [2] and in assay [3] was > 100 µM each time.

Turning to `CCC(COC(=O)CC[C@@H](NC(=O)C(C)NC(=O)C(C)OC1C(O)C(CO)OC(OCc2ccccc2)C1NC(C)=O)C(N)=O)NC1c2ccccc2Nc2cccc([N+](=O)[O-])c21` (stereo partly drawn), the TGI in assay [1] and in assay [3] was > 100 µM each time.

Consider `CN(C)CCNC(=O)c1cccc2cc3cc(O)ccc3nc12`, for which the TGI in assay [1] amounted to 3.83 µM; in assay [4] it was 1.25 µM; in assay [5] it was 2.33 µM; in assay [3], 3.13 µM; in assay [6], 2.66 µM.

On to `CC(C)OP(=O)(OC(C)C)C1=NN(c2ccc([N+](=O)[O-])cc2)C(P(=O)(OC(C)C)OC(C)C)=NN1c1ccc([N+](=O)[O-])cc1`, for which the TGI in assay [1] and in assay [3] was > 100 µM throughout.

`CCCc1c(C(=O)OCC)[nH]c(-c2ccc(-c3[nH]c(C(=O)OCC)c(CCC)c3C(=O)OCC)s2)c1C(=O)OCC`: the TGI in assay [1] and in assay [3] was > 100 µM throughout.

With `CC(=O)NC(CCCCN)C(=O)NCc1ccccc1` (stereo not drawn), in assay [3], the TGI was > 100 µM.

As to `COC(=O)CC(C(C(=O)OCc1ccccc1)C(C)O)N1C(=O)OC(c2ccccc2)C1c1ccccc1` (stereo not drawn), the TGI in assay [2] and in assay [3] was > 100 µM in each case.

For the molecule `CC1(C)C2CCC3(OCCO3)C1C(O)C2` (stereo not drawn), the TGI in assay [1] and in assay [2] was > 100 µM in each case.

On to `N#C/C(=C\c1cccc(O)c1O)C(N)=O`, for which the TGI in assay [2] and in assay [3] was > 100 µM in each case.

Turning to `COc1ccc2c(c1)OCCc1cn[nH]c1-2`, the TGI in assay [1], in assay [4], in assay [5], in assay [3] and in assay [6] was > 100 µM in each case.

For the molecule `CCSCN(C)c1nc(N(C)C)nc(N(C)C)n1`, the TGI in assay [1] was > 100 µM; in assay [3] it was 89.7 µM.

Take `O=C1C[C@@H]2[C@@H](CCC23CC3)N1`: the TGI in assay [1] and in assay [3] was > 100 µM throughout.

`COc1cccc(/C(Cl)=C(\C=O)c2cccc(OC)c2)c1`: the TGI in assay [1] turned out to be 41.9 µM; in assay [3] it was 16.4 µM.

For `O=NN(CCF)C(=O)NC1CC2CCC1C2` (stereo not drawn), the TGI in assay [1] was > 100 µM; in assay [4], 50.3 µM; in assay [5], > 100 µM; in assay [3] it was > 100 µM; in assay [6], > 100 µM.

Consider `O=C1Nc2cc([N+](=O)[O-])c(Br)cc2C1=O`, for which the TGI in assay [2] amounted to 33.2 µM; in assay [3], 33.5 µM.

With `COc1ccc2nc3c(c(NCCCN(C)C)c2c1)CCCC3`, the TGI in assay [2] was found to be 28.7 µM; in assay [3], 28.5 µM.

Regarding `CN(C)/C=N\c1ccnc(=O)[nH]1`, the TGI in assay [1], in assay [2] and in assay [3] was > 100 µM in each case.

`COc1cc(C2C(Cl)C(=O)N2NC(=O)c2ccc(NC(C)=O)cc2)ccc1O` (stereo not drawn): the TGI in assay [3] was > 100 µM.

With `Cc1cccc2c1c1ccc3c(c1n2C)C(=O)C=CC3=O`, the TGI in assay [1] stood at 23.9 µM; in assay [2], 49.6 µM; in assay [3] it was 21.1 µM.

As for `CC(=O)NNc1nc(C)c(C(=O)NNC(=O)C(=O)Nc2cccc(C(C)=O)c2)s1`, the TGI turned out to be 68.3 µM in assay [2] and 34.2 µM in assay [3].

`Cc1cc(NC(=O)C2C3C=CC(O3)C2C(=O)O)no1` (stereo not drawn): the TGI in assay [1] was > 100 µM; in assay [2] it was > 100 µM; in assay [3], 29.9 µM.

As to `C[S+](C)CC1OC(n2cnc3c(N)ncnc32)C(O)C1O` (stereo not drawn), the TGI in assay [4] is > 225 µM; in assay [5], > 22.5 µM; in assay [3] it was > 225 µM; in assay [6] it was > 225 µM.
